Experimental data as given in publication PMC11467737, “Osteocalcin binds to a GPRC6A Venus fly trap allosteric site to positively modulate GPRC6A signaling” (FASEB BioAdvances, 2024).
Positions count from the first letter of the chain named. Bridge positions count the residues as written; N and C are the ends. Ends that are not written are not given here.

What was measured:
[1] = biological target: T1, K352E hGPRC6A (Homo sapiens, UniProt Q5T6X5, K352E); assay: cAMP accumulation in HEK-293 cells transfected with K352E hGPRC6A; assay type: cell-based; conditions: K352E mutant; for cAMP accumulation by Ocn small fragments: fragment at 20 nM, Figure 6C
T1 construct: expressed in transfected cells; host or cells: HEK-293, pcDNA3
T1 sequence (Q5T6X5 19-926 K352E): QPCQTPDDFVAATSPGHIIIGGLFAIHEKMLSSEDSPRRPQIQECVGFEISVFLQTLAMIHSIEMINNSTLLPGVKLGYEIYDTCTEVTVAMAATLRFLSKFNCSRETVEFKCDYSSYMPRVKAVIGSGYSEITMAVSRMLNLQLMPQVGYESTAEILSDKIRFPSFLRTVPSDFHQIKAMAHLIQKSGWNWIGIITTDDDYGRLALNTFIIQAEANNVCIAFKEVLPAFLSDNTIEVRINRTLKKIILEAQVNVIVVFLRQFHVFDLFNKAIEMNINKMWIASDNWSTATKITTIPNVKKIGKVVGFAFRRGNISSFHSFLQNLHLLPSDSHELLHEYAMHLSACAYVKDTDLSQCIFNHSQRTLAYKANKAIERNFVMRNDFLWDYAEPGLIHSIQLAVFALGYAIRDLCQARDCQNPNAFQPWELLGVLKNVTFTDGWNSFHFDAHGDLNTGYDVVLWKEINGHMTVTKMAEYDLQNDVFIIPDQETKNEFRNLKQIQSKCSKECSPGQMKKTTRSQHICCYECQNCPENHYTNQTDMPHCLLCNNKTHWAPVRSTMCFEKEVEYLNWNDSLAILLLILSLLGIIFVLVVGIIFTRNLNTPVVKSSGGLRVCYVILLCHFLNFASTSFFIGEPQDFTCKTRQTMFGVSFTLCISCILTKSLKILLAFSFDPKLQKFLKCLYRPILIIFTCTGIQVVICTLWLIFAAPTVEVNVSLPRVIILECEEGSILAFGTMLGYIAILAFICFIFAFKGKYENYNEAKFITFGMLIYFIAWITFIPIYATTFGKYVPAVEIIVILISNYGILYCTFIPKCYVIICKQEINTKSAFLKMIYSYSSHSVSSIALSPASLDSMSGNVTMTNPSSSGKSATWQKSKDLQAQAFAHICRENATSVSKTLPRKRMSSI
Procedure: (§1) HEK‐293 transfected with human GPRC6A isoform cDNA plasmids cells (10^5 cells/well)[30] were cultured in 24‐well plates in DMEM supplemented with 10% fetal bovine serum and 1% penicillin/streptomycin (100 U/mL of penicillin and 100 μg/mL of streptomycin) for 48 h followed by 4 h incubation in DMEM/F12 containing 0.1% BSA and 0.5 mM IBMX to achieve quiescence and preventing cAMP degradation. Quiescent cells were treated with vehicle control, various ligands at concentration as indicated for 40 min at 37°C. Then, the reaction was stopped, and the cells lysed with 0.5 mL 0.1 N HCl. cAMP levels were measured by using Cyclic AMP EIA kit (Cayman Chemical; Ann Arbor, MA, USA) following the manufacture's protocol.
(§2) In‐vitro mutagenesis by PCR‐mediated recombination QuikChange II XL Site‐Directed Mutagenesis Kit (Agilent) was performed using the cDNA of human GPRC6A cloned in the vector pcDNA3 (Invitrogen) as a template. The primer sets are as follows. K352E.sen: […]; K352E.antisen: […]; H355P.sen: […]; H355P.antisen: […]; K352E/H355P.sen: […]; and K352E/H355P.antisen: […]. All mutants were confirmed by sequencing.

[2] = biological target: T2, K352E/H355P hGPRC6A (Homo sapiens, UniProt Q5T6X5, H355P/K352E); assay: cAMP accumulation in HEK-293 cells transfected with K352E/H355P hGPRC6A; assay type: cell-based; conditions: for cAMP accumulation by Ocn small fragments: K352E/H355P double mutant, fragment at 20 nM, Figure 6C
T2 construct: expressed in transfected cells; host or cells: HEK-293, pcDNA3
T2 sequence (Q5T6X5 19-926 K352E/H355P): T1 sequence (Q5T6X5 19-926 K352E) with H337P
Procedure: as §1, §2

Row | cAMP accumulation, dose response of full-length Ocn, versus wild-type receptor ([1]; Figure 6A) | cAMP accumulation, dose response of full-length Ocn, versus wild-type receptor ([2]; K352E/H355P mutant, Figure 6A) | cAMP accumulation by Ocn small fragments [1] | cAMP accumulation by Ocn small fragments [2] | Substance
1 | significantly decreased | significantly decreased | – | – | osteocalcin (YLYQWLGAPVPYPDPLEPRREVCELNPDCDELADHIGFQEAYRRFYGPV; not fully specified; ends and bridges not checked; UniProt P02818 52-100, looked up) [Ocn 1–49, full human Ocn (49 aa) synthesized by BioMatik; methods also describe decarboxylated Ocn purified from bovine tibial bone, reference compound]
2 | – | – | significantly attenuated | partially activate | RFYGPV [Ocn 44–49, synthesized human Ocn C‐terminal hexapeptide]
3 | – | – | no response | no response | REVCELNPDC (disulfide 4-10 (inferred)) [Ocn 20–29, synthesized human Ocn decapeptide fragment located in the middle of the protein]
